# Experimental data from patent US20210171604A1, “PEPTIDES FOR THE TREATMENT OF TYPE 2 DIABETES” (YISSUM RESEARCH DEVELOPMENT COMPANY OF THE HEBREW …, priority 2017, published 2021).
# Marks after values point to notes of the source that are not given here. [ ]: non-standard residue; d: D form. The star is where a group is joined. Stearoyl = CCCCCCCCCCCCCCCCCC(=O)*; Myristoyl = CCCCCCCCCCCCCC(=O)*; Nle = CCCC[C@H](N)C(=O)O; Nva = CCC[C@H](N)C(=O)O
# Experiments:
# [1] = system: male C57BL mice; assay: Inhibition of starvation-induced insulin resistance (blood glucose after 8 h starvation); format: in vivo; conditions: for inhibition of insulin-resistance developed in the course of starvation: i.p. ~35 mg/kg, 8 h starvation, compared to vehicle; for % blood glucose decrease following 8 h starvation / Mean blood glucose after 8 h starvation (% of time 0): i.p. 1 mg/mouse (~35 mg/kg); for % blood glucose decrease following 8 h starvation: compared with time 0; for inhibition of starvation-induced insulin-resistance (words, FIG. 1): Example 5, 20 mg/kg i.p., relative change in blood glucose compared to time 0 (=100%); for Mean blood glucose after 8 h starvation (% of time 0): level after 8 h starvation compared to t0 (=100%), vehicle 90.3
# Description: Protocol: Blood glucose was measured in the morning (time 0). The mice were then injected intraperitoneally with a peptide (1 mg/mouse=˜35 mg/kg) or with a vehicle and placed in a cage with water but no food. After 8 hrs starvation, blood glucose was measured again and the mice were supplied with food. […]
# The ability of the peptides ACD-403.3, ACD-047.7 and ACD-040.2 described in Example 1 above, to inhibit insulin-resistance induced by starvation was tested in mice (male C57BL mice ˜9-10 wks old).
# Peptides' solutions for injection were prepared as follows: 5 mg peptide were dissolved in 1 ml of a solution composed of 5% hydroxypropyl-beta-cyclodextrin (HPβCD)+2% Propylene glycol (PG)+2% Tween-80 in DDW (Wt/Vol). If needed, the solution was warmed up to 80° C. to facilitate peptide solubilization. 0.2 ml of this solution, or from a vehicle (no peptide), were injected i.p. into the mice.
# The results, summarized in Table 4 below, are expressed as % change in blood glucose level after 8 h starvation, compared to t0 (=100%), as well as % decrease in blood glucose after 8 hrs starvation, compared with blood glucose at time 0. A higher decrease in glucose levels in the blood indicates better intake of glucose by cells, which reflects better inhibition of the starvation-induced insulin resistance. […]
# [2] = system: obese diabetic mice (db/db); assay: Blood glucose response of obese diabetic (db/db) mice to peptide treatment; format: in vivo; conditions: for Blood glucose: mean, n=3; for % change from time point (−4) in blood glucose: compared to first baseline (241 mg/dL)
# Description: ACD-004 was tested for its effect on hyperglycemia in obese diabetic mice (db/db).
# Protocol: Mice (n=3) were kept on normal, unlimited diet. Prior to peptide treatment, baseline measurements of blood glucose and body weight were taken every ˜3 weeks through a period of 2.5 months (see time points (−1)-(−4) in Table 3 below). Injections of the peptide (intraperitoneally, ˜35 mg/kg) started on time point 0 and continued on time points 1 and 2, twice a day. Blood glucose and body weight were measured at the indicated days.
# The results, summarized in Table 3, are expressed as mean % change in blood glucose compared to the first baseline measurement (time point (−4)).
# Mice (n=16) were kept on normal, unlimited diet. Injections of the peptide (i.p., 20 mg/kg, n=9) or vehicle (i.p., n=7) started at 3-4 m of age (time point ‘0’) and continued for 3 days, once a day. In a similar experiment the peptide […] were injected to mice with severe diabetes for 7 days.
# [3] = DMSO/Brij-97 vehicle, vehicle 14%
# [4] = HPβCD/PG/Tween-80 vehicle, vehicle 9.7%
substance,measurement,setting,value
"Myr-G-F-T-K-G-Q-V-T-NH2 (Myristoyl-GFTKGQVT-NH2; SMILES CCCCCCCCCCCCCC(=O)NCC(=O)N[C@@H](Cc1ccccc1)C(=O)N[C@H](C(=O)N[C@@H](CCCCN)C(=O)NCC(=O)N[C@@H](CCC(N)=O)C(=O)N[C@H](C(=O)N[C@H](C(N)=O)[C@@H](C)O)C(C)C)[C@@H](C)O) [ACD-005, myristoylated, amidated peptide derived from h-HIF1α]",inhibition of insulin-resistance developed in the course of starvation,[1]; Example 2,effectively inhibited insulin-resistance
same,% blood glucose decrease following 8 h starvation,[1]; [3],49%
"Myr-G-R-N-F-Q-K-G-Q-V-T-R-NH2 (Myristoyl-GRNFQKGQVTR-NH2; SMILES CCCCCCCCCCCCCC(=O)NCC(=O)N[C@@H](CCCNC(=N)N)C(=O)N[C@@H](CC(N)=O)C(=O)N[C@@H](Cc1ccccc1)C(=O)N[C@@H](CCC(N)=O)C(=O)N[C@@H](CCCCN)C(=O)NCC(=O)N[C@@H](CCC(N)=O)C(=O)N[C@H](C(=O)N[C@H](C(=O)N[C@@H](CCCNC(=N)N)C(N)=O)[C@@H](C)O)C(C)C) [ACD-004, myristoylated, C-terminally amidated peptide derived from h-HO-1]",inhibition of insulin-resistance developed in the course of starvation,[1]; Example 2,effectively inhibited insulin-resistance
same,% blood glucose decrease following 8 h starvation,[1]; [3],47%
same,Blood glucose,"[2]; ACD-004 i.p. ~35 mg/kg twice a day at time points 0-2, time point 3, age 18.3 wks",105 mg/dL
same,Blood glucose,"[2]; ACD-004 i.p. ~35 mg/kg twice a day from time point 0, time point 1, age 17.9 wks",177 mg/dL
same,Blood glucose,"[2]; ACD-004 i.p. ~35 mg/kg twice a day from time point 0, time point 2, age 18.1 wks",139 mg/dL
same,effect on blood glucose levels in diabetic mice,"[2]; Example 3, i.p. ~35 mg/kg twice a day",effectively reduced blood glucose levels
same,% change from time point (−4) in blood glucose,[2]; time point 1,−27%
same,% change from time point (−4) in blood glucose,[2]; time point 2,−42%
same,% change from time point (−4) in blood glucose,[2]; time point 3,−56%
Myr-G-R-N-I-Q-K-G-Q-V-T-R-NH2 (Myristoyl-GRNIQKGQVTR-NH2; SMILES CCCCCCCCCCCCCC(=O)NCC(=O)N[C@@H](CCCNC(=N)N)C(=O)N[C@@H](CC(N)=O)C(=O)N[C@H](C(=O)N[C@@H](CCC(N)=O)C(=O)N[C@@H](CCCCN)C(=O)NCC(=O)N[C@@H](CCC(N)=O)C(=O)N[C@H](C(=O)N[C@H](C(=O)N[C@@H](CCCNC(=N)N)C(N)=O)[C@@H](C)O)C(C)C)[C@@H](C)CC) [ACD-047.8],"inhibition of starvation-induced insulin-resistance (words, FIG. 1)",[1],inactive
"Myr-G-R-N-L-Q-K-G-Q-V-T-R-NH2 (Myristoyl-GRNLQKGQVTR-NH2; SMILES CCCCCCCCCCCCCC(=O)NCC(=O)N[C@@H](CCCNC(=N)N)C(=O)N[C@@H](CC(N)=O)C(=O)N[C@@H](CC(C)C)C(=O)N[C@@H](CCC(N)=O)C(=O)N[C@@H](CCCCN)C(=O)NCC(=O)N[C@@H](CCC(N)=O)C(=O)N[C@H](C(=O)N[C@H](C(=O)N[C@@H](CCCNC(=N)N)C(N)=O)[C@@H](C)O)C(C)C) [ACD-047.7, myristoylated, amidated peptide derived from h-HO-1]",inhibition of insulin-resistance developed in the course of starvation,[1]; Example 4,effectively inhibited insulin-resistance
same,"inhibition of starvation-induced insulin-resistance (words, FIG. 1)",[1],inhibited significantly
same,% blood glucose decrease following 8 h starvation,[1]; [4],39.2%
same,Mean blood glucose after 8 h starvation (% of time 0),[1]; HPβCD/PG/Tween-80 vehicle,60.8** %
Myr-G-R-N-Nle-Q-K-G-Q-V-T-R-NH2 (Myristoyl-GRN[Nle]QKGQVTR-NH2; SMILES CCCCCCCCCCCCCC(=O)NCC(=O)N[C@@H](CCCNC(=N)N)C(=O)N[C@@H](CC(N)=O)C(=O)N[C@@H](CCCC)C(=O)N[C@@H](CCC(N)=O)C(=O)N[C@@H](CCCCN)C(=O)NCC(=O)N[C@@H](CCC(N)=O)C(=O)N[C@H](C(=O)N[C@H](C(=O)N[C@@H](CCCNC(=N)N)C(N)=O)[C@@H](C)O)C(C)C) [ACD-047.9],"inhibition of starvation-induced insulin-resistance (words, FIG. 1)",[1],inactive
"Myr-G-R-N-NorVal-Q-K-G-Q-V-T-R-NH2 (Myristoyl-GRN[Nva]QKGQVTR-NH2; SMILES CCCCCCCCCCCCCC(=O)NCC(=O)N[C@@H](CCCNC(=N)N)C(=O)N[C@@H](CC(N)=O)C(=O)N[C@@H](CCC)C(=O)N[C@@H](CCC(N)=O)C(=O)N[C@@H](CCCCN)C(=O)NCC(=O)N[C@@H](CCC(N)=O)C(=O)N[C@H](C(=O)N[C@H](C(=O)N[C@@H](CCCNC(=N)N)C(N)=O)[C@@H](C)O)C(C)C) [ACD-040.2, myristoylated, amidated peptide derived from h-HO-1]",inhibition of insulin-resistance developed in the course of starvation,[1]; Example 4,effectively inhibited insulin-resistance
same,% blood glucose decrease following 8 h starvation,[1]; [4],36.6%
same,Mean blood glucose after 8 h starvation (% of time 0),[1]; HPβCD/PG/Tween-80 vehicle,63.4** %
"Stear-G-R-N-F-Q-K-G-Q-V-T-R-NH2 (Stearoyl-GRNFQKGQVTR-NH2; SMILES CCCCCCCCCCCCCCCCCC(=O)NCC(=O)N[C@@H](CCCNC(=N)N)C(=O)N[C@@H](CC(N)=O)C(=O)N[C@@H](Cc1ccccc1)C(=O)N[C@@H](CCC(N)=O)C(=O)N[C@@H](CCCCN)C(=O)NCC(=O)N[C@@H](CCC(N)=O)C(=O)N[C@H](C(=O)N[C@H](C(=O)N[C@@H](CCCNC(=N)N)C(N)=O)[C@@H](C)O)C(C)C) [ACD-400.3, identical to ACD-004 except N-terminal acyl group is stearoyl instead of myristoyl]","blood glucose following 7-day treatment (words, FIG. 3)","[2]; (db/db) mice with severe diabetes, injected for 7 days, vs vehicle",outstanding decrease in blood glucose
same,"blood glucose following 3-day treatment (words, FIG. 2)","[2]; i.p. 20 mg/kg once a day for 3 days, n=9 vs vehicle n=7",outstanding decrease in blood glucose
"Stear-G-R-N-H-Q-K-G-Q-V-T-R-NH2 (Stearoyl-GRNHQKGQVTR-NH2; SMILES CCCCCCCCCCCCCCCCCC(=O)NCC(=O)N[C@@H](CCCNC(=N)N)C(=O)N[C@@H](CC(N)=O)C(=O)N[C@@H](Cc1c[nH]cn1)C(=O)N[C@@H](CCC(N)=O)C(=O)N[C@@H](CCCCN)C(=O)NCC(=O)N[C@@H](CCC(N)=O)C(=O)N[C@H](C(=O)N[C@H](C(=O)N[C@@H](CCCNC(=N)N)C(N)=O)[C@@H](C)O)C(C)C) [ACD-403.3, stearoylated, amidated peptide derived from h-HO-1]",inhibition of insulin-resistance developed in the course of starvation,[1]; Example 4,effectively inhibited insulin-resistance
same,% blood glucose decrease following 8 h starvation,[1]; [4],36.7%
same,Mean blood glucose after 8 h starvation (% of time 0),[1]; HPβCD/PG/Tween-80 vehicle,63.3** %
